{"source": "PubChem BioAssay (NCI)", "assay_in_all_cases": "inhibition of tumour cell growth, NCI panel, 48 h", "key": {"LXFL 529 NSCLC": {"test_system": "LXFL 529 NSCLC"}, "PC-3 prostate": {"test_system": "PC-3 prostate"}, "DU-145 prostate": {"test_system": "DU-145 prostate"}, "BT-549 breast": {"test_system": "BT-549 breast"}, "HS 578T breast": {"test_system": "HS 578T breast"}}, "note": "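A five-concentration, 48-hour dose response in 96-well plates underlies each endpoint, interpolated linearly between surrounding concentrations. GI50: concentration for 50% inhibition of growth. Definition used: TGI = concentration required for complete inhibition of growth.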", "data": [{"compound": "Cn1c(=O)c2nc(NCCO)cnc2n(C)c1=O", "values": [{"measurement": "TGI", "setting": "LXFL 529 NSCLC", "value": "> 100", "unit": "µM"}]}, {"compound": "O=C(c1ccccc1)c1nn(-c2ccccc2)c2nc3nc(-c4ccccc4)cc(=O)n3nc12", "values": [{"measurement": "GI50", "setting": "PC-3 prostate", "value": 32.4, "unit": "µM"}, {"measurement": "TGI", "setting": "PC-3 prostate", "value": "> 100", "unit": "µM"}, {"measurement": "GI50", "setting": "DU-145 prostate", "value": 23.8, "unit": "µM"}, {"measurement": "TGI", "setting": "DU-145 prostate", "value": 58.2, "unit": "µM"}, {"measurement": "GI50", "setting": "BT-549 breast", "value": 21.2, "unit": "µM"}, {"measurement": "TGI", "setting": "BT-549 breast", "value": 52.2, "unit": "µM"}, {"measurement": "GI50", "setting": "HS 578T breast", "value": 44.6, "unit": "µM"}, {"measurement": "TGI", "setting": "HS 578T breast", "value": "> 100", "unit": "µM"}]}, {"compound": "O=C1CSC(C(N=Nc2ccc(Cl)cc2)c2nc3ccccc3[nH]2)=N1", "note": "(stereo unspecified)", "values": [{"measurement": "TGI", "setting": "LXFL 529 NSCLC", "value": "> 100", "unit": "µM"}]}, {"compound": "C[C@]12CCc3sc(-c4cccc(F)c4)nc3C1=CC[C@@H]1[C@@H]2CC[C@]2(C)C(=O)CC[C@@H]12", "values": [{"measurement": "GI50", "setting": "PC-3 prostate", "value": 3.08, "unit": "µM"}, {"measurement": "TGI", "setting": "PC-3 prostate", "value": 14.2, "unit": "µM"}, {"measurement": "GI50", "setting": "BT-549 breast", "value": 2.2, "unit": "µM"}, {"measurement": "TGI", "setting": "BT-549 breast", "value": 8.06, "unit": "µM"}, {"measurement": "GI50", "setting": "HS 578T breast", "value": 3.86, "unit": "µM"}, {"measurement": "TGI", "setting": "HS 578T breast", "value": "> 100", "unit": "µM"}]}]}
